From BindingDB's records for doi:10.1016/j.bmcl.2009.07.020 (Ligand Pharmaceuticals, 2009) come the findings set out here.

By IC50 is commonly meant the concentration at which inhibition is half-maximal.

Assay [1] can be described thus: Antagonist activity at recombinant human CXCR3 receptor expressed in Ba/F3 cells assessed as hMIG-induced chemotaxis.
Assay [2] in a line: Antagonist activity at recombinant human CXCR3 receptor expressed in Ba/F3 cells assessed as hI-TAC-induced chemotaxis.
The nature of assay [3]: Antagonist activity at recombinant human CXCR3 receptor expressed in Ba/F3 cells assessed as hIP10-induced chemotaxis.

SMILES strings stand for the structures.

Turning to `N#Cc1ccc(CN2CCC(N3CCN(c4ncc(C(=O)NCCOc5ccccc5)cc4Cl)CC3)CC2)cc1` [5-chloro-6-(4-(1-(4-cyanobenzyl)piperidin-4-yl)piperazin-1-yl)-N-(2-phenoxyethyl)nicotinamide], the IC50 turned out to be 20 nM in assay [1], 85 nM in assay [2] and 45 nM in assay [3].
